Legend:
eIF4E = eIF4E (Mus musculus, UniProt P63073); experiment: Binding affinity of cap analogs to eIF4E by fluorescence titration; conditions: equilibrium association constant; 20 °C, pH 7.2, ionic strength 150 mM
Procedure: Fluorescence titration measurements were carried out on an LS-50B or LS-55 spectrofluorometer (Perkin Elmer Co.) at 20.0±0.2° C. in 50 mM HEPES/KOH (pH 7.2), 0.5 mM EDTA, and 1 mM DTT, with ionic strength adjusted to 150 mM by addition of KCl. Various cap analogue solutions, of increasing concentration, were added in 1 μl aliquots to 1.4 ml of 0.1 or 0.2 μM protein solutions. Fluorescence intensities were measured with excitation at 280 nm or 295 nm with 2.2 nm bandwidth, and detection at 337 nm with 4 nm bandwidth and a 290-nm cut-off filter. The data were corrected for sample dilution and inner filter effects. Equilibrium association constants (Kas) were determined by fitting the theoretical dependence of fluorescence intensity on cap analog concentration to the experimental data, as otherwise described in A. Niedźwiecka et al., “Biophysical studies of eIF4E cap-binding protein: recognition of mRNA 5′ cap structure and synthetic fragments of eIF4G and 4E-BP1 proteins,” J. Mol. Biol., vol. 312, pp. 615-635 (2002). The concentration of protein was allowed to be a free parameter in the equilibrium equation, to determine the amount of “active” protein. The final Kas was calculated as a weighted average of three to ten independent titrations, with the weights taken as the reciprocals of the squares of the numerical standard deviations. Numerical nonlinear least-square regression analysis was performed using ORGIN 6.0 (Microcal Software Inc., USA).
The binding affinities of eukaryotic eIF4E for various cap analogs were determined by fluorescence quenching. This biophysical test allows one to predict the potential efficacy of cap analogs in translation. Those having higher affinities for eIF4E than the unmodified cap analog (m^7GpppG) are expected to be better recognized by the translational machinery, leading to higher translational efficiencies. They also are expected to compete more effectively with unmodified mRNA when free cap dinucleotides are used to inhibit translation. See generally E. Grudzien-Nogalska et al., “Synthesis of anti-reverse cap analogs (ARCAs) and their applications in mRNA translation and stability,” Methods Enzymol., vol. 431, pp. 203-227 (2007).

Human DcpS = molecular target: T1, Human DcpS (Homo sapiens, UniProt Q96C86); experiment: Assay of susceptibility to DcpS (RP HPLC); assay type: biochemical; conditions: 40 μM cap analog, 30° C., up to 120 min
T1 construct: made in house; host or cells: Escherichia coli
T1 sequence (Q96C86 1-337): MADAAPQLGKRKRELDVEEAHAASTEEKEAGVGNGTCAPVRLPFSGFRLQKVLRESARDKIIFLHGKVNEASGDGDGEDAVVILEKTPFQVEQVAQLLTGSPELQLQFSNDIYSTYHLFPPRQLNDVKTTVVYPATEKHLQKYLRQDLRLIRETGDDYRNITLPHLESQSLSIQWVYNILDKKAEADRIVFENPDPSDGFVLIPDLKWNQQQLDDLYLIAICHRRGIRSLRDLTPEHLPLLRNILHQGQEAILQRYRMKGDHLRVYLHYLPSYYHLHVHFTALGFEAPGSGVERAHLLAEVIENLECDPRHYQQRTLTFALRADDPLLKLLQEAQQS
Procedure: Human DcpS was expressed in Escherichia coli as described in L. Cohen et al., “Nematode m^7GpppG and m3^2,2,7GpppG decapping: activities in Ascaris embryos and characterization of C. elegans scavenger DcpS,” RNA, vol. 10, pp. 1609-1624 (2004). A 15 μM solution of the protein in 20 mM Tris buffer, pH 7.5, containing 50 mM KCl, 0.2 mM EDTA, 1 mM DTT, 0.5 mM PMSF, and 20% glycerol was stored at −80° C. until used. Enzymatic reactions were carried out at 30° C. in 500 μl of 50 mM Tris-HCl, pH 7.9, containing 20 mM MgCl2 and 60 mM (NH4)2SO4. A 40 μM solution of the selected cap analog was treated with 5.0 μl of DcpS for 120 min. At times of 10, 30, 60, and 120 min, a 100-μl sample was collected from the reaction mixture and deactivated by incubation at 90° C. for 2 min. Samples were analyzed without further treatment by analytical RP HPLC with a linear gradient of methanol in 0.1 M KH2PO4, pH 6.0, from 0-50% over 15 min.

[1] = system: rabbit reticulocyte lysate system; experiment: In vitro translation efficiency of capped luciferase mRNA with 31-base poly(A) tail, method II transcripts; assay type: biochemical; conditions: for Translation efficiency in comparison to m^7GpppG-LUC-(A)31 mRNA, Experiment No. 4: experiment 4; for Translation efficiency in comparison to m^7GpppG-LUC-(A)31 mRNA, Experiment No. 5: experiment 5; for Translation efficiency in comparison to m^7GpppG-LUC-(A)31 mRNA, Mean: mean of experiments
Procedure: Capped, polyadenylated luciferase mRNAs were synthesized in vitro by PCR from a dsDNA template that contained the SP6 promoter, the 5′-UTR sequence of rabbit β-globin mRNA, the entire firefly luciferase coding region, and 31 adenosine residues. A typical transcription reaction mixture (40 μl) contained SP6 transcription buffer (Fermentas), 0.7 ug of DNA template, 1 U/μl RiboLock Ribonuclease Inhibitor (Fermentas), 0.5 mM each of ATP, CTP, and UTP, 0.1 mM GTP, and 0.5 mM dinucleotide cap analog. The reaction mixture was incubated at 37° C. for 5 min before addition of SP6 RNA polymerase (Fermentas) to a final concentration of 1 U/μl, and incubation then continued for 45 min at 37° C. The reaction mixture was treated with DNase as in Method I. RNA transcripts were purified with NucAway Spin Columns (Ambion). The integrity of transcripts and quantitation was performed as in Method I.
A micrococcal nuclease-treated rabbit reticulocyte lysate system (Flexi Rabbit Reticulocyte Lysate System, Promega) was used for in vitro translation. Translation reactions were performed in 10 μl for 60 min at 30° C. A typical reaction mixture contained 40% reticulocyte lysate, the 20 “standard” amino acids (0.01 mM each), MgCl2 (1.2 mM), potassium acetate (170 mM), and mRNA (five different concentrations of each transcript, ranging from 0.25 to 4 μg/ml). Luciferase activity was measured in a luminometer (Glomax, Promega). Linear regression was used to fit the data points (luciferase activity versus concentration of mRNA transcript), and translational efficiency was defined as the slope of this line. The relative translational efficiencies of the test mRNAs were compared to that of m^7GpppG-capped luciferase mRNA, the latter being defined as 1.0.

Sequence of eIF4E (P63073 28-217 limits assumed): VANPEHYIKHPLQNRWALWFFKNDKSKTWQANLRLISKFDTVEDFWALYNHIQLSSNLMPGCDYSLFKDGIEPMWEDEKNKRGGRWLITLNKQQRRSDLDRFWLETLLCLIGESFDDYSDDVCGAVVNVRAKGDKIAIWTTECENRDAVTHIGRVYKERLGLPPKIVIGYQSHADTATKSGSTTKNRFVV

For [BH3-]P(=O)(OC[C@H]1O[C@@H](n2cnc3c(=O)[nH]c(N)nc32)[C@H](O)[C@@H]1O)OP(=O)(O)OP(=O)(O)OC[C@H]1O[C@@H](n2c[n+](C)c3c(=O)[nH]c(N)nc32)[C@H](OC)[C@@H]1O (single isomer, unassigned) [m2^7,2′-OGpppBH3G (D1), m2^7,2′-OGpppBH3G], which “Cap analog/eIF4E affinity (KAS)” value (eIF4E) is on record?
The value was 15.3 ± 0.2 μM^−1.

What about the “Susceptibility to DcpS” value (Human DcpS) of the same compound?
The value was “hydrolyzed”.

And the “Translation efficiency in comparison to m^7GpppG-LUC-(A)31 mRNA, Experiment No. 4” value [1]?
Its value is 2.38.

And the “Translation efficiency in comparison to m^7GpppG-LUC-(A)31 mRNA, Experiment No. 5” value [1]?
Its value is 3.28.

What about the “Translation efficiency in comparison to m^7GpppG-LUC-(A)31 mRNA, Mean” value [1] of the same compound?
Its value is 2.83.

Which results are given for [BH3-]P(=O)(OC[C@H]1O[C@@H](n2cnc3c(=O)[nH]c(N)nc32)[C@H](O)[C@@H]1O)OP(=O)(O)OP(=O)(O)OC[C@H]1O[C@@H](n2c[n+](C)c3c(=O)[nH]c(N)nc32)[C@H](OC)[C@@H]1O (single isomer, unassigned) [m2^7,2′-OGpppBH3G (D2), m2^7,2′-OGpppBH3G]?
Cap analog/eIF4E affinity (KAS) (eIF4E): 14.4 ± 0.2 μM^−1; Susceptibility to DcpS (Human DcpS): hydrolyzed; Translation efficiency in comparison to m^7GpppG-LUC-(A)31 mRNA, Experiment No. 4 [1]: 1.76; Translation efficiency in comparison to m^7GpppG-LUC-(A)31 mRNA, Experiment No. 5 [1]: 1.92; Translation efficiency in comparison to m^7GpppG-LUC-(A)31 mRNA, Mean [1]: 1.84
